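Tested at 5 concentrations; 48 h exposure; 96-well plates; endpoints linearly interpolated, else capped at highest concentration. The concentration for 50% growth inhibition is given as GI50. TGI: concentration producing complete growth inhibition.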
Tests used:
Assay in all cases: inhibition of tumour cell growth, NCI panel, 48 h
[1] = system: 786-0 renal
[2] = system: HS 578T breast
[3] = system: MALME-3M melanoma
[4] = system: MDA-N
[5] = system: RPMI-8226 leukemia
[6] = system: T-47D breast
[7] = system: UO-31 renal
[8] = system: DLD-1 colon
[9] = system: HCC-2998 colon
[10] = system: HOP-18 NSCLC
[11] = system: KM20L2 colon
[12] = system: LXFL 529 NSCLC
[13] = system: M19-MEL melanoma
[14] = system: RXF-631 renal
[15] = system: XF 498 CNS

SMILES | TGI [1] | TGI [2] | TGI [3] | TGI [4] | TGI [5] | TGI [6] | TGI [7] | TGI [8] | TGI [9] | TGI [10] | TGI [11] | TGI [12] | TGI [13] | TGI [14] | TGI [15] | GI50 [9] | GI50 [2] | GI50 [3] | GI50 [7] | GI50 [6]
CS(=O)(=O)OC1CN2CCC1CC2 (configuration not stated) | > 100 µM | > 100 µM | > 100 µM | > 100 µM | > 100 µM | > 100 µM | > 100 µM |  |  |  |  |  |  |  |  |  |  |  |  | 
Cc1ccc(NP(=O)(Oc2ccccc2)N(CCCl)CCCl)cc1 (configuration not stated) |  |  | > 100 µM |  | > 100 µM |  | > 100 µM | > 100 µM | > 100 µM | > 100 µM | > 100 µM | > 100 µM | > 100 µM | > 100 µM |  |  |  |  |  | 
C=CCc1cc(-c2cc(CC=C)c(O)c(CNC)c2)cc(CNC)c1O | 29 µM |  | 33.6 µM |  | 50.6 µM |  | 25.8 µM | 29.3 µM | 30 µM |  | 30.8 µM | 28.5 µM | 27.2 µM | 28.8 µM | 30.3 µM |  |  |  |  | 
O=C1N(c2ccccc2)C2(c3ccccc3)CC3CCCC13S2 (configuration not stated) | > 100 µM | > 100 µM | > 100 µM |  | 98.8 µM | > 100 µM | > 100 µM |  |  |  |  |  |  |  |  |  |  |  |  | 
CCN(CC)CCCC(C)Nc1ccnc2cc3ccccc3cc12 (configuration not stated) | > 100 µM | > 100 µM | 45.1 µM |  | > 100 µM | 89.7 µM | 53.9 µM |  |  |  |  |  |  |  |  |  |  |  |  | 
O=C(O)c1cc(=O)[nH]c(SCc2ccccc2)n1 | > 100 µM |  | > 100 µM | > 100 µM |  | > 100 µM | > 100 µM |  |  |  |  |  |  |  |  |  |  |  |  | 
CSc1nc(NC2OCC(OC(C)=O)C(OC(C)=O)C2OC(C)=O)c(N=C(C)C(C)=O)c(=O)[nH]1 (configuration not stated) |  |  | > 100 µM |  | > 100 µM |  |  | > 100 µM |  | > 100 µM |  | > 100 µM |  |  | > 100 µM |  |  |  |  | 
COc1ccc(C2CC(c3cccc(Nc4ccncc4)c3)=NN2c2ccc(Cl)cc2)cc1 (configuration not stated) |  | 3.68 µM | 3.15 µM |  |  |  | 2.51 µM |  | 3.22 µM |  |  |  |  |  |  | 1.74 µM | 1.77 µM | 1.59 µM | 1.2 µM | 
CCCCCCCCCCCCCCCc1ccc(OCC(O)CO)cc1 (configuration not stated) |  |  | 46.8 µM |  | 53.2 µM |  | > 100 µM | > 100 µM | 49.9 µM | > 100 µM | 94.4 µM | 68 µM | 33.4 µM | 71.6 µM | 39.3 µM |  |  |  |  | 
CCN1C=C/C(=C\C=C/c2cc[n+](CC)c3ccccc23)c2ccccc21 | 18.2 µM | 24.6 µM | 30.5 µM | 19.3 µM | 12 µM | 28 µM | 35.6 µM |  | 19 µM |  |  |  |  |  |  |  |  |  |  | 
Cc1cccc2cc3c(ccc4ccccc43)c[n+]12 | > 100 µM | 24.6 µM | 5.22 µM | > 100 µM | > 100 µM |  | > 100 µM |  | 42.7 µM |  |  |  |  |  |  |  |  |  |  | 
Nc1cc2c(nnn2C2OC(COCc3ccccc3)C(OCc3ccccc3)C2OCc2ccccc2)c(=O)[nH]1 (configuration not stated) | > 100 µM | > 100 µM | > 100 µM | 34 µM |  | > 100 µM | > 100 µM |  |  |  |  |  |  |  |  |  |  |  |  | 
O=C(C[C@H](NC(=O)OCc1ccccc1)C(=O)NC1Cc2ccccc2OC1=O)OCc1ccccc1 (some centres not stated) |  | > 100 µM | > 100 µM | > 100 µM | > 100 µM | > 100 µM | > 100 µM |  | 66.5 µM |  |  |  |  |  |  |  |  |  |  | 
O=S1(=O)C(c2ccccc2)C(N2CCCCC2)C1C1CC2c3ccccc3C1c1ccccc12 (configuration not stated) | > 100 µM | > 100 µM | > 100 µM | > 100 µM | > 100 µM | > 100 µM | > 100 µM |  |  |  |  |  |  |  |  |  |  |  |  | 
O=C(C=P(c1ccccc1)(c1ccccc1)c1ccccc1)c1cccc(-c2cccc([N+](=O)[O-])c2)c1 | > 100 µM | > 100 µM | 9.28 µM | 6.95 µM | 4.53 µM | > 100 µM | 20.3 µM |  | > 100 µM |  |  |  |  |  |  |  |  |  |  | 
O=Cc1cc([N+](=O)[O-])no1 |  | > 100 µM |  | 52.6 µM | > 100 µM | > 100 µM | > 100 µM |  | > 100 µM |  |  |  |  |  |  |  |  |  |  | 
CC(C)(C)OC(=O)NCC(=O)NC1c2ccsc2/C(=N/O)[C@H]1O (some centres not stated) |  |  | > 100 µM | > 100 µM |  | > 100 µM | > 100 µM |  | > 100 µM |  |  |  |  |  |  |  |  |  |  | 
CCOC(=O)C[C@@H]1C2(C=C[C@@]13CO3)OCC(C)(C)CO2 |  | > 100 µM | > 100 µM | > 100 µM |  | > 100 µM | > 100 µM |  | > 100 µM |  |  |  |  |  |  |  |  |  |  | 
C#CCn1ncc2c(SC)ncnc21 | > 100 µM | > 100 µM | > 100 µM | > 100 µM | > 100 µM | > 100 µM | > 100 µM |  | > 100 µM |  |  |  |  |  |  |  |  |  |  | 
Nc1ccc(-c2cssc2=S)cc1 | > 100 µM | > 100 µM | > 100 µM | > 100 µM | 5.65 µM |  | > 100 µM |  | > 100 µM |  |  |  |  |  |  |  |  |  |  | 
CCCCCCNC(=O)c1cc(CCc2cc(O)ccc2O)ccc1O | 4.26 µM | 26.4 µM | 6.47 µM | 9.54 µM |  |  | 2.98 µM |  | 9.68 µM |  |  |  |  |  |  |  |  |  |  | 
CC(=O)Nc1ccc(N=C2C(c3ccccc3)=C(SC3=C(c4ccccc4)C(=Nc4ccc(NC(C)=O)cc4)c4ccccc43)c3ccccc32)cc1 | > 100 µM |  | > 100 µM | > 100 µM | 81.1 µM | 48.4 µM | > 100 µM |  | > 100 µM |  |  |  |  |  |  |  |  |  |  | 
CO/C=C(/C(=O)OC)c1ccccc1[C@@H]1CC1c1cccc(F)c1 (some centres not stated) | > 100 µM | > 100 µM | 45.9 µM | 91.2 µM | 48.3 µM | > 100 µM | > 100 µM |  | 94.8 µM |  |  |  |  |  |  |  |  |  |  | 
O=c1cc(-c2ccc(O)cc2)n(C2CC2)c2ccccc12 | 17.1 µM | 24.8 µM |  | 26.2 µM | 9.05 µM | 20.7 µM | 21.1 µM |  |  |  |  |  |  |  |  |  |  |  |  | 
O=C1CS(=O)(=O)C(c2cccc(Oc3ccccc3)c2)N1c1cccc(Cl)c1 (configuration not stated) | 40.3 µM | 97 µM | 52.6 µM | 49.2 µM |  | > 100 µM | > 100 µM |  | 15.7 µM |  |  |  |  |  |  |  |  |  |  | 
c1ccc(C2CC(c3cccc(Nc4ccncc4)c3)=NN2c2ccccc2)cc1 (configuration not stated) |  | 3.47 µM | 3.02 µM |  |  | 4.7 µM | 2.8 µM |  | 2.96 µM |  |  |  |  |  |  | 1.58 µM | 1.55 µM | 1.57 µM | 1.48 µM | 2 µM
N#Cc1c(NC(=S)Nc2ccc(Cl)cc2)sc2c1CCCC2 |  |  | > 100 µM | > 100 µM | 67.9 µM | > 100 µM | > 100 µM |  | > 100 µM |  |  |  |  |  |  |  |  |  |  | 
Cc1cc2c(cc1Cl)SC(c1ccccc1)C(=O)NS2(=O)=O (configuration not stated) | > 100 µM | 59.4 µM |  | > 100 µM | > 100 µM | 84.6 µM | 75.1 µM |  | 70.8 µM |  |  |  |  |  |  |  |  |  |  | 
CC(=O)Oc1c(C)c2c(O)c3c1C1=C(OCOC1=C(C)C3=O)/C(C)=C\C(C)(O)C(O)C(C)C(O)C1C(=O)OC(C(C)C1O)C(C)(O)/C=C/C=C(C)C(=O)N2 (configuration not stated) | > 100 µM | > 100 µM | > 100 µM | > 100 µM | > 100 µM | > 100 µM | 46.5 µM |  | > 100 µM |  |  |  |  |  |  |  |  |  |  | 
Cc1nc2c(n1C)C(=O)c1nc(CBr)[nH]c(=O)c1C2=O |  |  |  |  | > 100 µM |  | > 100 µM | > 100 µM |  | > 100 µM | > 100 µM | > 100 µM | > 100 µM |  |  |  |  |  |  | 
